The results in this text go back to PubChem BioAssay (NCI).

What all share (assay): inhibition of tumour cell growth, NCI panel, 48 h
The test system of experiment [1] is SW-620 colon.
Experiment [2] relates to HCT-116 colon.
The test system of experiment [3] is SF-539 CNS.
The test system of experiment [4] is EKVX NSCLC.
Experiment [5] deals with NCI-H460 lung.
Experiment [6] deals with OVCAR-3 ovarian.
The test system of experiment [7] is TK-10 renal.
For experiment [8], the system named is UACC-257 melanoma.
For experiment [9], the system named is HOP-62 NSCLC.
Experiment [10] has as its system SN12C renal.
In experiment [11] the test system is OVCAR-8 ovarian.
Experiment [12] deals with SK-MEL-5 melanoma.
The test system of experiment [13] is HS 578T breast.
In experiment [14] the test system is DU-145 prostate.
The subject of experiment [15] is T-47D breast.

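Compound exposure: 48 hours, 5 concentrations, 96-well plates. TGI is the concentration that stops growth completely.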

Take `CCOC(=O)N(NC(=O)NC(C)C)c1ccccc1`: the TGI in experiment [1], in experiment [2], in experiment [3], in [4], in experiment [5] and in experiment [6] was over 100 µM in each case. Moreover, the TGI in experiment [7], in [8], in experiment [9], in experiment [10], in experiment [11] and in experiment [12] was over 100 µM each time. For the same compound, in experiment [13], the TGI is over 100 µM.
As for `O=c1[nH]c(=O)n(CCOc2ccccc2)cc1Nc1ccccc1`, the TGI in experiment [1], in experiment [2], in [4], in experiment [5], in experiment [6] and in [8] was over 100 µM throughout. For the same compound, the TGI in experiment [9] is 87.4 µM; in experiment [10] it was over 100 µM; in experiment [12] it was over 100 µM; in experiment [13], over 100 µM; in experiment [14], over 100 µM.
Turning to `O=c1c2ccccc2[nH]c2c(Cl)cc(Cl)c(NC3CCCCC3)c12`, the TGI is 49 µM in experiment [1]; over 100 µM in experiment [2]; 57.8 µM in experiment [3]; 76.8 µM in experiment [4]; 28 µM in experiment [6]; 61.3 µM in [7]. The TGI is 69.5 µM in experiment [8]; 60.8 µM in [9]; 55.3 µM in experiment [10]; 44.8 µM in experiment [11]; over 100 µM in experiment [12]; over 100 µM in [15].
With `O=P1(O)c2ccccc2CCc2ccccc21`, the TGI in experiment [1], in [2], in [3], in [4], in experiment [6] and in experiment [7] was over 100 µM in each case. Moreover, the TGI in experiment [8], in experiment [9], in [10], in experiment [11], in experiment [12] and in experiment [13] was over 100 µM in each case. Further, the TGI in experiment [14] is over 100 µM.
Regarding `COc1ccc(C[C@@H](CO)NC2=C(C#N)CCC2)cc1`, the TGI in experiment [1], in experiment [2], in experiment [3], in [4], in experiment [5] and in [6] was over 100 µM throughout. Further, the TGI in [7], in experiment [8], in [9], in [10], in experiment [11] and in experiment [12] was over 100 µM each time. In addition, the TGI in [13] is 93 µM; in experiment [14] it was over 100 µM.
Take `COc1ccc2c(c1)C(=O)Cc1ccccc1CC2`: the TGI in experiment [1], in [2], in experiment [3], in [4], in experiment [5] and in experiment [6] was over 100 µM each time. In addition, the TGI in experiment [7], in experiment [8], in experiment [10], in experiment [11] and in experiment [12] was over 100 µM each time.
As to `NCCCCC(NC(=O)C(N)Cc1ccc(O)cn1)C(=O)O` (centres undefined), the TGI in experiment [1], in [2], in [3], in experiment [4], in experiment [5] and in [6] was over 100 µM each time. Besides, the TGI in [7], in experiment [8], in experiment [9], in experiment [10], in experiment [11] and in experiment [12] was over 100 µM throughout. Besides, the TGI in [13] and in experiment [14] was over 100 µM each time.
Consider `[Cl-].[Rh+3].c1cnc2c(c1)ccc1cccnc12.c1cnc2c(c1)ccc1cccnc12.c1cnc2c(c1)ccc1cccnc12`, for which the TGI in experiment [1], in experiment [2], in experiment [3], in [4], in experiment [5] and in experiment [6] was over 100 µM throughout. The TGI was 92.5 µM in experiment [8]; over 100 µM in experiment [9]; over 100 µM in experiment [10]; over 100 µM in experiment [11]; over 100 µM in experiment [12].
Regarding `COC(=O)/C=C(/C=C1/C(C#N)=C(N)N(c2ccc(Cl)cc2)C1(C)/C(=C/C(=O)OC)C(=O)OC)C(=O)OC` (centres undefined), the TGI in [1], in [2], in experiment [3], in experiment [4], in experiment [5] and in experiment [6] was over 100 µM each time. For the same compound, the TGI in experiment [7], in experiment [8], in experiment [9], in experiment [10], in experiment [11] and in experiment [15] was over 100 µM each time. The compound further displayed a TGI in experiment [14] of over 100 µM.
With `CCOCc1c(C)cc(C)c(C2C(C(=O)c3ccccc3)N3c4ccccc4C=CC3C2(C#N)C(=O)OCC)c1C` (centres undefined), the TGI was over 100 µM in experiment [1]; over 100 µM in [2]; 67.3 µM in [4]; over 100 µM in experiment [5]; over 100 µM in [6]; over 100 µM in experiment [8]. Further, the TGI in experiment [10] is over 100 µM; in experiment [12] it was 33.2 µM; in [13] it was over 100 µM; in [14], over 100 µM.
As for `O=S(=O)(O)C1=C2Sc3ccccc3N=C2c2ccccc2C1`, the TGI amounted to 29.8 µM in [1]; 28.5 µM in experiment [2]; 24.4 µM in experiment [3]; 32 µM in experiment [4]; 40 µM in experiment [5]; 31.3 µM in experiment [6]. The TGI was determined as 32.9 µM in experiment [7]; 31.4 µM in experiment [8]; 35 µM in [9]; 26.8 µM in experiment [10]; 31.5 µM in experiment [11]; 26.4 µM in [12].
